Laboratory results taken from patent US12281225B2, “Process for preparing stable polymers containing vinylimidazole” (BASF SE, priority 2018, dated 2025).

What was measured:
[1] = Analysis of active substance: preservative concentration before and after storage in VI-containing polymer solution; format: physicochemical; details: for active-substance concentration, 0 d, RT: before storage; for active-substance concentration, 14 d, 40° C.: storage 14 d at 40° C.; for active-substance concentration, 28 d, 40° C.: storage 28 d at 40° C.; for active-substance concentration, 60 d 40° C.: storage 60 d at 40° C.
How it was run: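 Preservatives (MIT, BIT, CMIT, OIT, DCOIT, iodopropynyl butyl carbamate) in aqueous vinylpyrrolidone–vinylimidazole copolymer solution quantified after dilution by isocratic RP18 chromatography with UV detection, using an acid-methanol eluent.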

[2] = Iodine color number according to DIN 6162:2014-09; format: physicochemical
[3] = Physical stability; visual assessment (color, turbidity, phase separation); format: physicochemical; set-up: key: ++: no discernible change with respect to color, turbidity or phase separation; +: marginal change in color number, somewhat increased Tyndall effect but no turbidity; 0: easily discernible increase in color number and moderate turbidity−no phase separation; −: turbidity and change in color number readily discernible by visual assessment; −−: strong color change with strong turbidity and incipient phase separation
How it was run: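 Samples were inspected visually for color, turbidity and phase separation and scored on a five-step scale. Scores run from ++ (no discernible change) to −− (strong color change, strong turbidity, incipient phase separation).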

[4] = test system: Bacteria: Escherichia coli, Staphylococcus aureus, Pseudomonas aeruginosa, Pseudomonas putida, Burkholderia cepacia, Alcaligenes faecalis; assay: Preservation test with periodic inoculation, bacteria assessment; format: cell-based; details: for 60 d 40° C., bact. assess., 4th inoculation: sample stored 60 d at 40° C.; for Start sample measurement, bact. assess., 4th inoculation: freshly formulated
How it was run: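 Polymer samples (25 g) containing preservative were inoculated weekly, four times, with 10^9/ml bacterial or yeast mixtures (0.5 ml). Weekly streaks on agar were scored semiquantitatively (−− to ++) after 3 days at 25 °C, on fresh samples and on samples stored 60 days at 40 °C.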

[5] = Polymer P5 (HP56) with stabilizer

Compound: CCCCCCCCn1sccc1=O [OIT, octylisothiazolinone]
- active-substance concentration, 0 d, RT ([1]; in Polymer P1): 250 ppm
- active-substance concentration, 14 d, 40° C. ([1]; in Polymer P1): 142 ppm
- active-substance concentration, 28 d, 40° C. ([1]; in Polymer P1): 89 ppm
- active-substance concentration, 60 d 40° C. ([1]; in Polymer P1): 72 ppm
- active-substance concentration, 0 d, RT ([1]; in Polymer P2): 250 ppm
- active-substance concentration, 14 d, 40° C. ([1]; in Polymer P2): 170 ppm
- active-substance concentration, 28 d, 40° C. ([1]; in Polymer P2): 101 ppm
- active-substance concentration, 60 d 40° C. ([1]; in Polymer P2): 84 ppm
- active-substance concentration, 0 d, RT ([1]; in Polymer P3): 250 ppm
- active-substance concentration, 14 d, 40° C. ([1]; in Polymer P3): 163 ppm
- active-substance concentration, 28 d, 40° C. ([1]; in Polymer P3): 121 ppm
- active-substance concentration, 60 d 40° C. ([1]; in Polymer P3): 96 ppm
- active-substance concentration, 0 d, RT ([1]; in Polymer P4): 250 ppm
- active-substance concentration, 14 d, 40° C. ([1]; in Polymer P4): 165 ppm
- active-substance concentration, 28 d, 40° C. ([1]; in Polymer P4): 114 ppm
- active-substance concentration, 60 d 40° C. ([1]; in Polymer P4): 90 ppm
- active-substance concentration, 0 d, RT ([1]; in Polymer P5 (HP56)): 250 ppm
- active-substance concentration, 14 d, 40° C. ([1]; in Polymer P5 (HP56)): 142 ppm
- active-substance concentration, 28 d, 40° C. ([1]; in Polymer P5 (HP56)): 89 ppm
- active-substance concentration, 60 d 40° C. ([1]; in Polymer P5 (HP56)): 72 ppm
- active-substance concentration, 0 d, RT ([1]; in Polymer P6): 250 ppm
- active-substance concentration, 14 d, 40° C. ([1]; in Polymer P6): 135 ppm
- active-substance concentration, 28 d, 40° C. ([1]; in Polymer P6): 88 ppm
- active-substance concentration, 60 d 40° C. ([1]; in Polymer P6): 68 ppm
- active-substance concentration, 0 d, RT ([1]; in Polymer P7): 250 ppm
- active-substance concentration, 14 d, 40° C. ([1]; in Polymer P7): 139 ppm
- active-substance concentration, 28 d, 40° C. ([1]; in Polymer P7): 92 ppm
- active-substance concentration, 60 d 40° C. ([1]; in Polymer P7): 73 ppm
- active-substance concentration, 0 d, RT ([1]; in Polymer P8): 250 ppm
- active-substance concentration, 14 d, 40° C. ([1]; in Polymer P8): 142 ppm
- active-substance concentration, 28 d, 40° C. ([1]; in Polymer P8): 89 ppm
- active-substance concentration, 60 d 40° C. ([1]; in Polymer P8): 72 ppm
- active-substance concentration, 0 d, RT ([1]; in Polymer P9): 250 ppm
- active-substance concentration, 14 d, 40° C. ([1]; in Polymer P9): 128 ppm
- active-substance concentration, 28 d, 40° C. ([1]; in Polymer P9): 76 ppm
- active-substance concentration, 60 d 40° C. ([1]; in Polymer P9): 62 ppm
- Iodine color number, 60 d 40° C. ([2]; Polymer P1 with stabilizer): 5.9
- Iodine color number, start ([2]; Polymer P1 with stabilizer): 2.8
- Iodine color number, 60 d 40° C. ([2]; Polymer P2 with stabilizer): 8.0
- Iodine color number, start ([2]; Polymer P2 with stabilizer): 3.0
- Iodine color number, 60 d 40° C. ([2]; Polymer P3 with stabilizer): 9.2
- Iodine color number, start ([2]; Polymer P3 with stabilizer): 3.3
- Iodine color number, 60 d 40° C. ([2]; Polymer P4 with stabilizer): 9.7
- Iodine color number, start ([2]; Polymer P4 with stabilizer): 3.3
- Iodine color number, 60 d 40° C. [2, 5]: 9.7
- Iodine color number, start [2, 5]: 3.4
- Iodine color number, 60 d 40° C. ([2]; Polymer P6 with stabilizer): 9.7
- Iodine color number, start ([2]; Polymer P6 with stabilizer): 3.4
- Iodine color number, 60 d 40° C. ([2]; Polymer P7 with stabilizer): 9.7
- Iodine color number, start ([2]; Polymer P7 with stabilizer): 3.4
- Iodine color number, 60 d 40° C. ([2]; Polymer P8 with stabilizer): 10.0
- Iodine color number, start ([2]; Polymer P8 with stabilizer): 3.3
- Iodine color number, 60 d 40° C. ([2]; Polymer P9 with stabilizer): 15.5
- Iodine color number, start ([2]; Polymer P9 with stabilizer): 4.0
- Physical stability, 60 d 40° C.* ([3]; Polymer P1 with stabilizer): −−
- Physical stability, 60 d 40° C.* ([3]; Polymer P2 with stabilizer): −−
- Physical stability, 60 d 40° C.* ([3]; Polymer P3 with stabilizer): −−
- Physical stability, 60 d 40° C.* ([3]; Polymer P4 with stabilizer): −−
- Physical stability, 60 d 40° C.* [3, 5]: −−
- Physical stability, 60 d 40° C.* ([3]; Polymer P6 with stabilizer): −−
- Physical stability, 60 d 40° C.* ([3]; Polymer P7 with stabilizer): −−
- Physical stability, 60 d 40° C.* ([3]; Polymer P8 with stabilizer): −−
- Physical stability, 60 d 40° C.* ([3]; Polymer P9 with stabilizer): −−
- 60 d 40° C., bact. assess., 4th inoculation ([4]; Polymer P1): +
- 60 d 40° C., bact. assess., 4th inoculation ([4]; Polymer P2): +
- 60 d 40° C., bact. assess., 4th inoculation ([4]; Polymer P3): ++
- Start sample measurement, bact. assess., 4th inoculation ([4]; Polymer P4): − (slight growth, max. 100 colonies)
- 60 d 40° C., bact. assess., 4th inoculation ([4]; Polymer P4): ++
- Start sample measurement, bact. assess., 4th inoculation ([4]; Polymer P5 (HP56)): − (slight growth, max. 100 colonies)
- 60 d 40° C., bact. assess., 4th inoculation ([4]; Polymer P5 (HP56)): ++
- Start sample measurement, bact. assess., 4th inoculation ([4]; Polymer P6): − (slight growth, max. 100 colonies)
- 60 d 40° C., bact. assess., 4th inoculation ([4]; Polymer P6): ++
- Start sample measurement, bact. assess., 4th inoculation ([4]; Polymer P7): − (slight growth, max. 100 colonies)
- 60 d 40° C., bact. assess., 4th inoculation ([4]; Polymer P7): ++
- 60 d 40° C., bact. assess., 4th inoculation ([4]; Polymer P8): +
- 60 d 40° C., bact. assess., 4th inoculation ([4]; Polymer P9): ++
